{"source": "paper PMC9631343", "about": "(ACS Bio & Med Chem Au, 2022)", "data": [{"test": "in vitro", "conditions": "African green monkey", "units": {"CC50": "µM"}, "values": [{"compound": "O=c1[nH]cnc2c([C@@H]3N[C@H](CO)[C@@H](O)[C@H]3O)c[nH]c12", "note": "[forodesine]", "CC50": "> 100"}, {"compound": "CC(C)Nc1nc2cc(Cl)c(Cl)cc2n1[C@H]1O[C@@H](CO)[C@H](O)[C@@H]1O", "note": "[maribavir]", "CC50": "> 100"}, {"compound": "CC(C)C(=O)OC[C@H]1O[C@@H](n2ccc(NO)nc2=O)[C@H](O)[C@@H]1O", "note": "[molnupiravir]", "CC50": "> 100"}, {"compound": "COc1nc(N)nc2c1ncn2[C@@H]1O[C@H](CO)[C@@H](O)[C@@H]1O", "note": "[nelarabine]", "CC50": "> 100"}, {"compound": "CCC(CC)COC(=O)[C@H](C)N[P@](=O)(OC[C@H]1O[C@@](C#N)(c2ccc3c(N)ncnn23)[C@H](O)[C@@H]1O)Oc1ccccc1", "note": "[remdesivir]", "CC50": "> 100"}, {"compound": "CC(C)=CCNc1ncnc2c1ncn2[C@@H]1O[C@H](CO)[C@@H](O)[C@H]1O", "note": "[riboprine, N^6-(2-Isopentenyl)adenosine]", "CC50": "> 100"}, {"compound": "OC[C@H]1O[C@@H](n2cnc3c(N[C@@H]4CCOC4)ncnc32)[C@H](O)[C@@H]1O", "note": "[tecadenoson]", "CC50": "> 100"}, {"compound": "Nc1ncnc2c1ncn2[C@@H]1O[C@H](CO)[C@@H](O)[C@@H]1O", "note": "[vidarabine, Arabinosyladenine]", "CC50": "> 100"}]}]}
